Reference: patent US5759768A, “Assays for factors affecting circularization of DNA, assays for factors affecting DNA integration, factors, and uses thereof” (priority 1995, dated 1998)

test system: linear viral DNA (circularization); format: biochemical, HIV-1; details: 1 mM, 37° C., 45 min
Experimental: The chronically HIV-1 infected Molt IIIB human T cell line (HTLV IIIB virus strain) was the source of virus for cell-free infections. This human T cell line constitutively produces a low level of the HTLV-111B strain of HIV-1. Culture supernatant containing a high concentration of virus was prepared by incubating 300×10^6 Molt IIIB cells in 50 ml fresh RPMI 1640 medium containing 20% fetal calf serum and 10 ng of phorbol 12-myristate 13-acetate per ml for 20-24 hours. […] Cytoplasmic extracts (3 ml) were prepared 4-4.5 hours post-infection, by a modification of the procedure of Brown et al., Cell 49: 342-356 (1987).
At specified times after infection, cells were washed twice with buffer K (20 mM Hepes, pH 7.4, 150 mM KCl, 5 mM MgCl2, 1 mM dithiothreitol, […]) and then lysed at a concentration of 33×10^6 cells per ml in the same buffer containing 0.025% digitonin or 0.025% Triton X-100. Cells were extracted for 10 minutes at room temperature, and the lysate was centrifuged at 1000×g for 3 minutes, and is referred to as "cytoplasmic extract". Cytoplasmic extract was the source of viral DNA for analyses in the assays described below. The pellet from the initial low-speed centrifugation contained cell debris and intact nuclei and is called the "nuclear pellet". Cell extracts from uninfected SupT1 cells were prepared in the same manner.
Viral DNA present in cytoplasmic extracts was deproteinated by incubation with proteinase K (1 mg/ml)/10 mM EDTA/0.5% SDS for 1 hour at 55° C. Samples were extracted successively with phenol/chloroform [1:1 (vol/vol)] and chloroform. DNA was ethanol-precipitated, washed with 70% ethanol, resuspended in 10 mM Tris.HCI (pH 7.4), and treated with RNase A (20 μpg/ml)for 1 hour at […]. before analysis by agarose gel electrophoresis and Southern blotting.
DNA samples were layered on 0.8% agarose gels and electrophoresed at 1 V/cm for 15 hour in Tris/acetate/EDTA buffer. After electrophoresis, DNA was blotted by capillary action onto nitrocellulose (0.45 μm, Schleicher & Schuell).
Cell extracts were prepared from cells four to five hours after infection with HIV-1, using the above-described methods to yield fully functional viral preintegration complexes. […] In all cases, a HIV-1 LTR-containing DNA fragment was used as a hybridization probe. Therefore, only LTR-containing DNA fragments are detected. […] Lane 5: Unintegrated viral DNA prepared by Hirt extraction of SupT1 cells infected 24 hours earlier with concentrated HIV-1. […] Viral DNA was purified from extracts incubated with 1 mM ATP for 15 minutes (lanes 1 and 4), with 1 mM ATP for 45 minutes (lanes 3 and 6), or with 1 mM ATPγS for 45 minutes (lanes 2 and 5). Lanes 1-3: uncut viral DNA; lanes 4-6: viral DNA was cut with SalI prior to electrophorosis. Lane 7: linear viral DNA, prepared from untreated extracts was digested with SalI prior to electrophorosis. Lane 8: unintegrated viral DNA prepared by Hirt extraction of infected cells, as described with respect to FIG. 14, digested with SalI prior to electrophoresis. […] Lanes 1-3. Viral DNA prepared from extracts treated with 1 mM ATP for 15 minutes, 30 minutes and 45 minutes, respectively. Lane 4: Viral DNA prepared from extract treated with 1 mM ATPγS for 45 minutes. Lanes 5-7: products of reactions shown in lanes 1-3, respectively, digested with SalI and PstI prior to electrophoresis. Lane 8: SalI, PstI digestion of viral DNA prepared from extract treated with 1 mM ATP for 90 minutes. Lane 9: SalI, PstI digestion of reaction products shown in lane 4. Lane 10: SalI, PstI digestion of unintegrated viral DNA prepared by Hirt extraction of infected cells.

Row | Compound | circular DNA forms observed | induction of 1-LTR circular form | induction of 2-LTR circles
1 | Nc1nc2nc[nH]c2c(=O)[nH]1 [guanine] | No circular DNA forms were observed |  | 
2 | Nc1cc[nH]c(=O)n1 [cytosine] | No circular DNA forms were observed |  | 
3 | Nc1ccn([C@H]2CC[C@@H](COP(=O)(O)OP(=O)(O)OP(=O)(O)O)O2)c(=O)n1 [ddCTP] |  | unable to induce detectable amounts of the 1-LTR circular forms | induced the formation of 2-LTR circles
4 | Nc1nc2c(ncn2[C@H]2CC[C@@H](COP(=O)(O)OP(=O)(O)OP(=O)(O)O)O2)c(=O)[nH]1 [dd-GTP] |  | unable to induce detectable amounts of the 1-LTR circular forms | induced the formation of 2-LTR circles
5 | Nc1ncnc2c1ncn2[C@@H]1O[C@H](CO)[C@@H](O)[C@H]1O [adenosine] | No circular DNA forms were observed |  | 
6 | Nc1ncnc2c1ncn2[C@@H]1O[C@H](COP(=O)(O)OP(=O)(O)O)[C@@H](O)[C@H]1O [ADP] | No circular DNA forms were observed |  | 
7 | Nc1nc2c(ncn2[C@@H]2O[C@H](COP(=O)(O)OP(=O)(O)O)[C@@H](O)[C@H]2O)c(=O)[nH]1 [GDP] | No circular DNA forms were observed |  | 
8 | Nc1ncnc2c1ncn2[C@@H]1O[C@H](COP(=O)(O)O)[C@@H](O)[C@H]1O [AMP] | No circular DNA forms were observed |  | 
9 | Nc1nc2c(ncn2[C@@H]2O[C@H](CO)[C@@H](O)[C@H]2O)c(=O)[nH]1 [guanosine] | No circular DNA forms were observed |  | 
10 | Nc1ncnc2c1ncn2[C@@H]1O[C@H](CO)C[C@H]1O [cordycepin, 3'-deoxyadenosine] | No circular DNA forms were observed |  | 
11 | Nc1nc2c(ncn2[C@@H]2O[C@H](COP(=O)(O)OP(=O)(O)OP(=O)(O)O)[C@@H](O)[C@H]2O)c(=O)[nH]1 [GTP, guanosine triphosphate] |  | induced the formation of only a small amount of the 1-LTR circular form | induced the formation of 2-LTR circles
12 | Nc1ncnc2c1ncn2[C@H]1CC[C@@H](COP(=O)(O)OP(=O)(O)OP(=O)(O)O)O1 [ddATP, dideoxyadenesine triphosphate] |  | unable to induce detectable amounts of the 1-LTR circular forms | induced the formation of 2-LTR circles
13 | Nc1ncnc2nc[nH]c12 [adenine] | No circular DNA forms were observed |  | 
14 | Cc1cn([C@H]2CC[C@@H](COP(=O)(O)OP(=O)(O)OP(=O)(O)O)O2)c(=O)[nH]c1=O [ddTTP] |  | unable to induce detectable amounts of the 1-LTR circular forms | induced the formation of 2-LTR circles
15 | O=c1cc[nH]c(=O)[nH]1 [uracil] | No circular DNA forms were observed |  | 
